# Results as given in patent EP3818828A1 (priority 2019, dated 2021).
# Read-outs that look alike come from different tables or passages of the source.
# How the values were obtained:
# Assay type in all cases: cell-based
# [1] = system: Phytophthora infestans; details: Phytophthora infestas; 1 mg/mL
# [2] = system: Botryosphaeria berengeriana; test: Ex vivo mycelial growth inhibition, growth rate method; details: 1 mg/mL
# Text: (§1) 3-(3',4'-methylenedioxy phenyl)-N-n-propyl acrylamide (at a purity of 99%), 3-(3',4'-methylenedioxy phenyl)-piperidine acrylate (at a purity of 99%), the control agents, 96.5% of chlorothalonil technical (non-systemic broad-spectrum fungicide), 97.2% of carbendazim technical (systemic broad-spectrum fungicide), 97.0% of procymidone technical (systemic fungicide), 96.0% of dimethomorphtechnical ((E,Z)-4-[3-(4-chlorphenyl)3-(3,4-dimethoxy phenyl)acryloyl]morpholine, systemic fungicide), 97.0% of azoxystrobin technical (systemic broad-spectrum fungicide).
# (§2) The inhibition of samples for testing on the mycelial growth of plant pathogenic fungi for testing is determined with a growth rate method. 3-(3',4'-methylenedioxy phenyl)-N-n-propyl acrylamide, 3-(3',4'-methylenedioxy phenyl)-piperidine acrylate and five control agents are dissolved with dimethyl sulfoxide (DMSO), then formulated at 5-7 concentrations of different gradients for test following the trial test results, with the same concentration of DMSO as the control solvent, each treatment in triplicate. Fungal cakes with a diameter of 4 mm are taken from the edge of the colony, inoculated into the center of a PDA plate containing different agents of different concentrations and the DMSO control, with one piece of fungal cake inoculated in each plate (with a diameter of […]), and incubated in a constant temperature incubator at a temperature of 22±1.5°C. 7 days later (10-20 days may be needed for some pathogenic fungi), the diameter of the colony is measured with a cross over method according to the mycelial growth profile of the control pathogenic fungi, then the inhibition rate of mycelial growth is calculated.
# (§3) The computational formula is as below: the inhibition rate of mycelial growth (%) = [(the diameter of the control colony - the diameter of the treated colony)/the diameter of the control colony] × 100.
# (§4) The inhibition results of each agent at a concentration of 1 mg/mL on the mycelial growth of plant pathogenic fungi are shown in Tables 1 and 2.
# [3] = system: Botryosphaeriana berengeriana; test: as above; details: 1 mg/mL
# Text: as §1, §2, §3, §4
# [4] = system: Botrytis cinerea; test: as above; details: 1 mg/mL
# Text: as §1, §2, §3, §4
# [5] = system: C. gossypii; test: as above; details: 1 mg/mL
# Text: as §1, §2, §3, §4
# [6] = system: Colletotrichum capsici; test: as above; details: 1 mg/mL
# Text: as §1, §2, §3, §4
# [7] = system: Coniella diplodiella; test: as above; details: 1 mg/mL
# Text: as §1, §2, §3, §4
# [8] = system: Exserohilum turcicum; test: as above; details: 1 mg/mL
# Text: as §1, §2, §3, §4
# [9] = system: F. oxysporum f. sp. lini; test: as above; details: 1 mg/mL
# Text: as §1, §2, §3, §4
# [10] = system: F. oxysporum f. sp. vasinfectum; test: as above; details: 1 mg/mL
# Text: as §1, §2, §3, §4
# [11] = system: F. verticillioide; test: as above; details: 1 mg/mL
# Text: as §1, §2, §3, §4
# [12] = system: Gaeumannomyces graminis var. graminis and G. graminis var. tritici; test: as above; details: 1 mg/mL
# Text: as §1, §2, §3, §4
# [13] = system: Mycosphaerlla melonis; test: as above; details: 1 mg/mL
# Text: as §1, §2, §3, §4
# [14] = system: Phytophthora capsici; test: as above; details: Phytophthora capsici; 1 mg/mL
# Text: as §1, §2, §3, §4
# [15] = system: Pythium aphanidermatum; test: as above; details: 1 mg/mL
# Text: as §1, §2, §3, §4
# [16] = system: Rhizoctonia solani; test: as above; details: Rhizoctonia solani; 1 mg/mL
# Text: as §1, §2, §3, §4
# [17] = system: Sclerotinia sclerotiorum; test: as above; details: 1 mg/mL
# Text: as §1, §2, §3, §4
# [18] = system: Thanatephorus cucumeris; test: as above; details: 1 mg/mL
# Text: as §1, §2, §3, §4
# [19] = system: Valsa mali; test: as above; details: 1 mg/mL
# Text: as §1, §2, §3, §4
# [20] = system: Fusarium graminearum; test: microbe, parasite or virus in culture
# [21] = system: F. graminearum; test: microbe, parasite or virus in culture
# [22] = system: Pyricularia grisea; test: microbe, parasite or virus in culture
# [23] = system: Phytophthora infestans; test: microbe, parasite or virus in culture; details: 1 mg/mL
# [24] = system: Botrytis cinerea; test: Toxicity determination (EC50) on mycelial growth, growth rate method
# Description: as §2
# (§5) 3-(3',4'-methylenedioxy phenyl)-piperidine acrylate, the control agents 96.5% of chlorothalonil technical and 97.0% of procymidone technical. Agents for testing and the control agents chlorothalonil and procymidone are treated at 5-8 concentrations of different gradients on the basis of preliminary tests to ensure that the inhibition rates for treatments at all the concentrations are between 10% and 90%.
# (§6) For specific determination methods, with reference to Embodiment 1. The concentration of active ingredients in the culture medium is used as the testing concentration to calculate the toxic regression equation (Y=bx+a) and the median inhibition concentration EC50, 95% confidence limit, and relative toxicity. Relative toxicity (compared to chlorothalonil) = EC50 of chlorothalonil / EC50 of 3-(3',4'-methylenedioxy phenyl)-piperidine acrylate, and relative toxicity (compared to procymidone) = EC50 of procymidone / EC50 of 3-(3',4'-methylenedioxy phenyl)-piperidine acrylate.
# [25] = system: Colletotrichum capsici; test: as above
# Description: as §2, §5, §6
# [26] = system: Exserohilum turcicum; test: as above
# Description: as §2, §5, §6
# [27] = system: Sclerotinia sclerotiorum; test: as above
# Description: as §2, §5, §6
# [28] = system: Valsa mali; test: as above
# Description: as §2, §5, §6
# [29] = system: Fusarium graminearum; test: microbe, parasite or virus in culture; remark: listed apart in the source
# [30] = system: F. graminearum; test: microbe, parasite or virus in culture; remark: listed apart in the source
# [31] = system: Magnaporthe grisea; test: microbe, parasite or virus in culture
# [32] = system: Phytophthora infestans; test: microbe, parasite or virus in culture
# [33] = EC50 of chlorothalonil / EC50 of agent
# [34] = EC50 of procymidone / EC50 of agent
# [35] = median inhibition concentration
smiles,measurement,setting,value
"N#Cc1c(Cl)c(Cl)c(Cl)c(C#N)c1Cl [Chlorothalonil, chlorothalonil]",Average Diameter of the Colony,[1],1.78 cm
same,Average Diameter of the Colony,[2],2.11 cm
same,inhibition at 1000 µg/mL,[2],69%
same,Average Diameter of the Colony,[3],0.94 cm
same,inhibition at 1000 µg/mL,[3],83.5%
same,Average Diameter of the Colony,[4],1.16 cm
same,inhibition at 1000 µg/mL,[4],84.5%
same,Average Diameter of the Colony,[5]; C. gossypii,1.45 cm
same,inhibition at 1000 µg/mL,"[5]; Colletotrichum gossypii, C. cossypii, read-out: Inhibition Rate",73.2%
same,Average Diameter of the Colony,[6],1.95 cm
same,inhibition at 1000 µg/mL,[6]; Colletotrichum truncatum,71.2%
same,Average Diameter of the Colony,[7],0.00 cm
same,inhibition at 1000 µg/mL,[7],100%
same,Average Diameter of the Colony,[8],1.41 cm
same,inhibition at 1000 µg/mL,[8],77.3%
same,Average Diameter of the Colony,[9],3.73 cm
same,inhibition at 1000 µg/mL,[9]; Fusarium oxysporum,58.6%
same,Average Diameter of the Colony,[10],2.45 cm
same,inhibition at 1000 µg/mL,[10]; Fusarium oxysporum,66.2%
same,Average Diameter of the Colony,[11],0.87 cm
same,inhibition at 1000 µg/mL,[11],74.3%
same,Average Diameter of the Colony,[12],2.51 cm
same,inhibition at 1000 µg/mL,[12],64.9%
same,Average Diameter of the Colony,[13],2.16 cm
same,inhibition at 1000 µg/mL,[13],74.9%
same,Average Diameter of the Colony,[14],0.91 cm
same,inhibition at 1000 µg/mL,[14],82.8%
same,Average Diameter of the Colony,[15],1.14 cm
same,inhibition at 1000 µg/mL,[15],83%
same,Average Diameter of the Colony,[16],0.00 cm
same,inhibition at 1000 µg/mL,[16],100%
same,Average Diameter of the Colony,[17],0.00 cm
same,inhibition at 1000 µg/mL,[17],100%
same,Average Diameter of the Colony,[18],1.05 cm
same,inhibition at 1000 µg/mL,[18],87.8%
same,Average Diameter of the Colony,[19],1.65 cm
same,inhibition at 1000 µg/mL,[19]; Cytospora mali,79.1%
same,Average Diameter of the Colony,[20]; 1 mg/mL,0.71 cm
same,inhibition at 1000 µg/mL,[20]; read-out: Inhibition Rate,86.7%
same,Average Diameter of the Colony,"[21]; F. graminearum, 1 mg/mL",1.92 cm
same,inhibition at 1000 µg/mL,"[21]; Fusarium graminearum, read-out: Inhibition Rate",77.7%
same,Average Diameter of the Colony,[22]; 1 mg/mL,1.63 cm
same,inhibition at 1000 µg/mL,[22]; read-out: Inhibition Rate,81.9%
same,Average Diameter of the Colony,[23],0.20 cm
same,Relative Toxicity (Compared to Chlorothalonil),[24]; [33],1.00
same,Relative Toxicity (Compared to Procymidone),[24]; [34],0.45
same,EC50,[24]; [35],177 µg/mL
same,EC50,"[25]; Colletotrichum truncatum, median inhibition concentration, read-out: EC50",404 µg/mL
same,Relative Toxicity (Compared to Chlorothalonil),[25]; [33],1.00
same,Relative Toxicity (Compared to Procymidone),[25]; [34],1.28
same,Relative Toxicity (Compared to Chlorothalonil),[26]; [33],1.00
same,Relative Toxicity (Compared to Procymidone),[26]; [34],0.26
same,EC50,"[26]; median inhibition concentration, read-out: EC50",411 µg/mL
same,Relative Toxicity (Compared to Chlorothalonil),[27]; [33],1.00
same,Relative Toxicity (Compared to Procymidone),[27]; [34],1.13
same,EC50,[27]; [35],62.7 µg/mL
same,EC50,"[28]; Cytospora mali, median inhibition concentration, read-out: EC50",418 µg/mL
same,Relative Toxicity (Compared to Chlorothalonil),[28]; [33],1.00
same,Relative Toxicity (Compared to Procymidone),[28]; [34],1.02
same,Relative Toxicity (Compared to Chlorothalonil),[29]; [33],1.00
same,Relative Toxicity (Compared to Procymidone),[29]; [34],0.31
same,EC50,[29]; [35],469 µg/mL
same,Relative Toxicity (Compared to Chlorothalonil),[30]; [33],1.00
same,Relative Toxicity (Compared to Procymidone),[30]; [34],3.75
same,EC50,"[30]; Fusarium graminearum, median inhibition concentration",227 µg/mL
same,Relative Toxicity (Compared to Chlorothalonil),[31]; [33],1.00
same,Relative Toxicity (Compared to Procymidone),[31]; [34],0.71
same,EC50,"[31]; Pyricularia oryzae, median inhibition concentration",436 µg/mL
same,Relative Toxicity (Compared to Chlorothalonil),[32]; [33],1.00
same,Relative Toxicity (Compared to Procymidone),[32]; [34],6.78
same,EC50,[32]; [35],115 µg/mL
